{"source": "paper PMC5531494", "about": "“Target specificity, in vivo pharmacokinetics, and efficacy of the putative STAT3 inhibitor LY5 in osteosarcoma, Ewing's sarcoma, and rhabdomyosarcoma” (PLoS ONE, 2017)", "origin": "cited, not measured here", "settings": "earlier work of the authors; cited from earlier work", "data": [{"molecule": "NS(=O)(=O)c1cccc2c1C(=O)c1cccc(O)c1C2=O", "note": "[LLL12]", "values": [{"measurement": "oral bioavailability", "value": "poor oral bioavailability"}]}]}
